Assay [1] has as its system fibroblast growth factor basic (bFGF). The experiment in a line: bFGF/Matrigel-induced swelling (tumor-like matrix) in nude mice. The format is in vivo. As to the method:
In a procedure similar to example 3 fibroblast growth factor basic (bFGF) was used.
D-myo-inositol-1,2,6-trisphosphate (IP3) was administered to five mice while another group of five mice, recieving saline, were a control group.

Assay [2] has as its system heterotopic bone formation. The experiment in a line: Rabbit heterotopic bone (HB) development model. Particulars: 1 mg/kg/hour s.c. osmotic minipump, day 42. In kind it is in vivo. Set-up: key: ++++: very marked amount of HB; +++: marked amount of HB; ++: between slight and marked amount of HB; +: slight amount of HB; 0: none amount of HB. Here is the method:
Heterotopic bone formation is caused by a local growth and formation of bone. One essential component in this process is the activation of growth factors.
The right hind limb of adult rabbits (weight about 4.0 kg) was immobilized with the knee in extension by means of a plastic splint and an elastic bandage, so that the Vastus intermedius profundus (VIP) muscle was in a shortened position and the hip joint could be moved freely.
According to the standard model the rabbits were treated by removing the splint daily for 2-3 minutes for forcible and rapid manipulation of the knee.
IP3 was administered via subcutaneously operated osmotic minipumps to three rabbits. The dose level was 1 mg/kg/hour, and the time of application period was 14-21 days. The control group, another three rabbits received NaCl-solution by osmotic minipumps.
Anteposterior and lateral radiographs were made of the hind limbs of all rabbits weekly throughout the duration of the experiment which lasted 42 days.
At the end of the experiment the rabbits were killed with an overdose of Mebunat and the left and right femoral bones of each rabbit were dissected and boiled for macroscopic examination.

For assay [3], the system named is Vascular permeability factor (VPF). The experiment in a line: VPF-induced vascular permeability, Evans Blue distribution in guinea pigs. In kind it is in vivo, guinea pig. The conditions noted are these: 5 mg/kg intravenous; after 60 minutes; control 62 mm^2. As to the method: Vascular permeability factor (VPF) promotes extravasation and oedema formation. Evans Blue was injected intravenously to 15 guinea pigs. This dye binds to plasma proteins and thereby provides a marker for vascular permeability to macromolecules.
50 mg of VPF was injected to each animal and the distribution of Evans Blue was measured.

The subject of the next assay is eye opening. As to the kind of experiment: Eye opening of new-born mice. In kind it is in vivo. The conditions noted are these: 192 μg/g/day, daily injections day 0 to day 7; controls 13.6 and 13.5 days. From the text: Growth factors are involved in processes occuring in new-born mammals. The biological process of eye opening is one example where specific growth factors affect the timing and completeness of the event.
Three groups of mice, 40 animals in each group were used. […] The third group served as a control without any treatment.

A further assay has as its system scarr formation on skin. The experiment in a line: Scar formation on scratches of the epidermis of a human hand, topical application. The conditions noted are these: topical solution, observation over 10 days. The format is in vivo. As to the method:
To two of the scratches a solution comprising IP3 was applied topically while two of the scratches served as controls. Occular investigation was performed every day over a period of 10 days.

For assay [4], the system named is phosphatidyl inositol 3′ kinase (PI 3′-kinase). As to the kind of experiment: Interstitial fluid pressure (PIF) in rat hind paw, wortmannin-induced decrease. In kind it is in vivo, Wistar Möller rats. The conditions noted are these: 5 μg in 0.1 ml intravenous before wortmannin. The text has this:
The enzyme phosphatidyl inositol 3′ kinase (PI 3′-kinase) is implicated in a number of growth factor induced responses such as mitogenesis, chemotaxis, membrane ruffling and the balance between osteoclasts and osteoblasts. Furthermore it is known that inactivation of PI 3′ kinase leads to increased oedema formation expressed as a decrease of interstitial fluid pressure (PIF) in animal models.
An inhibitor of PI 3′ kinase such as wortmannin renders a decrease of PIF as a consequence of inactivation of PI 3′ kinase.
The measurements were performed on female Wistar Möller rats (200-250 g), anesthetized with pentobarbital (50 mg/kg i.p.).
PIF was measured on the dorsal side of the hind paw with sharpened glass capillarier (tip diameter 2-7 μm) filled with 0.5 M NaCl coloured with Evans Blue and connected to a serve-controlled counter pressure system. The punctures were performed through intact skin using a stereomicroscope. The pipette-tip was located 0.3-0.5 mm below the skin. Pressure measurements were made 2.5-3.0 mm from the center of injection. The normal transcapillary pressure gradient is about 0.5 mm Hg.
Three sets of experiments were performed with six animals in each set.
In the first set of experiment the vehicle for wortmannin, DMSO diluted in saline, 5 μl, was injected subdermally using a chromatography syringe. […]

The test system of assay [5] is basic fibroblast growth factor (b FGF). As to the kind of experiment: b FGF-induced bone formation on the calvaria of mice. The format is in vivo. Set-up: key to Severeness of bone formation: 0: no bone formation; ++++: severe bone formation. As to the method:
Injection of basic fibroblast growth factor (b FGF) stimulates osteoblastic activity and leads to bone formation.
The osmotic minipumps were implanted on day 1.
To the calvaria of each animal, 10 μl of b FGF (concentration 50 μg/ml) was injected four times daily of the period of day 2 to day 4.
After the experimental period of 14 days each animal was investigated macroscopically and the histological preparations were further examined by conventional routines.
Macroscopically visible bone formation was measured according to scale from
0 which represents no bone formation to
++++ which represents severe bone formation

Several values for one entry are separate records, joined by “and”; a condition that tells them apart may be missing. Equal entries are not always repeated.

On to `O=P(O)(O)OC1C(O)C(O)C(O)C(OP(=O)(O)O)C1OP(=O)(O)O` [IP3, D-myo-inositol-1,2,6-trisphosphate], for which the “volume of the formed matrix” value in assay [1] (Day 1) was found to be 180 mm^3; in assay [1] (Day 3) it was 120 mm^3; in assay [1] (Day 5), 110 mm^3; in assay [1] (Day 7), 120 mm^3; in assay [1] (Day 8), 110 mm^3; in assay [1] (Day 9) it was 120 mm^3. The “histological examinations of the animals” value in assay [1] (group where IP3 was administered) is “anti-angiogenic effects”. Further, the “Amount of HB” value in assay [2] (application of IP3 14 days, individual rabbits, 1 mg/kg) was “+ and 0”; in assay [2] (application of IP3 21 days, individual rabbit), 0. The “average area covered with Evans Blue” value in assay [3] was 15 mm^2. Besides, the “eye opening, medium value” with eye opening is 15.3 days. For the same compound, the “scarr formation compared to the control” value in the assay with scarr formation on skin is reported as “formed scarr in a delayed manner”. Further, the “effect of pretreatment on wortmannin-induced decrease in PIF” value in assay [4] is given as “abolished decrease in PIF”. The “histological examination of the calvaria” value in assay [5] (120 mg/kg/day for 14 days) is recorded as “anti-angiogenic properties”. Besides, the “Severeness of bone formation” value in assay [5] (120 mg/kg/day osmotic minipump for 14 days, individual animals) was determined as 0.

These data come from patent US6632797B2, “Method of treating angiogenesis” (priority 1996, dated 2003).
